In brackets after ≈: the same amount, converted by molar mass. Blank lines part the entries; values can stand above or below the compound they belong to.
How the values were obtained:
Experiment in all cases: In vitro antibacterial evaluation: minimum inhibitory concentration (MIC), broth dilution method
Format in all cases: cell-based
Escherichia coli = details: 18 hours at 35° C.
Summary of the method: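 NCCLS M7-A2 broth dilution with Mueller-Hinton II, testing 64-0.06 μg/mL antibiotic against 5×10^5 CFU/mL inocula. Test strains include recent methicillin-, penicillin- or vancomycin-resistant clinical isolates. MIC is the lowest concentration preventing growth.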

Staphylococcus sp. = details: for MIC Staphylococcus aureus (ATCC 29213): strain ATCC 29213; for MIC Staphylococcus aureus (GC 1131): strain GC 1131; for MIC Staphylococcus aureus (GC 3051): strain GC 3051; for MIC Staphylococcus aureus (GC 3053): strain GC 3053; for MIC Staphylococcus aureus (GC 4541): strain GC 4541; for MIC Staphylococcus aureus (GC 4542): strain GC 4542; for MIC Staphylococcus aureus-SMITH (GC 4543): strain GC 4543; for MIC Staphylococcus aureus (GC 4544): strain GC 4544; for MIC Staphylococcus aureus (GC 4545): strain GC 4545; for MIC Staphylococcus haemolyticus (GC 4546): strain GC 4546; for MIC Coagulase Negative Staphylococcus (GC 4547): strain GC 4547; for MIC Coagulase Negative Staphylococcus (GC 4548): strain GC 4548; for MIC Coagulase Negative Staphylococcus (GC 4549): strain GC 4549; for MIC Coagulase Negative Staphylococcus (GC 4551): strain GC 4551; for MIC Coagulase Negative Staphylococcus (GC 6257): strain GC 6257
Summary of the method: (§1)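 Values are minimum inhibitory concentrations, meaning the smallest antibiotic concentration that stops growth of the organism. They come from broth dilution in Muller-Hinton II […] per NCCLS guidance (M7-A2), using 5×10^5 CFU/mL and concentrations from 64 to 0.06 μg/mL.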

Streptococcus sp. = details: 18 hours at 35° C.
Summary of the method: as §1

Enterococcus sp. = details: 18 hours at 35° C.
Summary of the method: as §1

[1] = Streptococcus agalactiae (GC 4564)
[2] = Streptococcus pneumoniae (ATCC 6301)
[3] = Streptococcus pneumoniae (GC 1894)
[4] = Streptococcus pneumoniae (GC 4565)
[5] = Streptococcus pyogenes (GC 4563)
[6] = broth dilution, inoculum 5×10^5 CFU/mL
[7] = Enterococcus faecalis (ATCC 29212)
[8] = Enterococcus faecalis (GC 2242)
[9] = Enterococcus faecalis (GC 2691)
[10] = Enterococcus faecalis (GC 3059)
[11] = Enterococcus faecalis (GC 4552)
[12] = Enterococcus faecalis (GC 4553)
[13] = Enterococcus faecalis (GC 4554)
[14] = Enterococcus faecalis (GC 6189)

- MIC Escherichia coli (ATCC 25922) (Escherichia coli): >64 µg/mL
- MIC Escherichia coli (GC 4559) (Escherichia coli): >64 µg/mL
- MIC Escherichia coli (GC 4560) (Escherichia coli): >64 µg/mL
- MIC Staphylococcus aureus (ATCC 29213) (Staphylococcus sp.): >64 µg/mL
- MIC Staphylococcus aureus (GC 1131) (Staphylococcus sp.): >64 µg/mL
- MIC Staphylococcus aureus (GC 3051) (Staphylococcus sp.): >64 µg/mL
- MIC Staphylococcus aureus (GC 3053) (Staphylococcus sp.): >64 µg/mL
- MIC Staphylococcus aureus (GC 4541) (Staphylococcus sp.): >64 µg/mL
- MIC Staphylococcus aureus (GC 4542) (Staphylococcus sp.): >64 µg/mL
- MIC Staphylococcus aureus-SMITH (GC 4543) (Staphylococcus sp.): >64 µg/mL
- MIC Staphylococcus aureus (GC 4544) (Staphylococcus sp.): >64 µg/mL
- MIC Staphylococcus aureus (GC 4545) (Staphylococcus sp.): >64 µg/mL
- MIC Coagulase Negative Staphylococcus (GC 4547) (Staphylococcus sp.): >64 µg/mL
- MIC Coagulase Negative Staphylococcus (GC 4548) (Staphylococcus sp.): >64 µg/mL
- MIC Coagulase Negative Staphylococcus (GC 4549) (Staphylococcus sp.): >64 µg/mL
- MIC Coagulase Negative Staphylococcus (GC 4551) (Staphylococcus sp.): >64 µg/mL
- MIC Coagulase Negative Staphylococcus (GC 6257) (Staphylococcus sp.): >64 µg/mL
- MIC Streptococcus agalactiae (GC 4564) (Streptococcus sp.; [1]): 1 µg/mL (≈ 0.624 µM)
- MIC Streptococcus pneumoniae (ATCC 6301) (Streptococcus sp.; [2]): 0.12 µg/mL (≈ 0.0748 µM)
- MIC Streptococcus pneumoniae (GC 1894) (Streptococcus sp.; [3]): <0.06 µg/mL
- MIC Streptococcus pneumoniae (GC 4565) (Streptococcus sp.; [4]): <0.06 µg/mL
- MIC Streptococcus pyogenes (GC 4563) (Streptococcus sp.; [5]): 16 µg/mL (≈ 9.98 µM)
- MIC Streptococcus agalactiae (GC 4564) (Streptococcus sp.; [6]): 1 µg/mL (≈ 0.624 µM)
- MIC Streptococcus pneumoniae (ATCC 6301) (Streptococcus sp.; [6]): 0.12 µg/mL (≈ 0.0748 µM)
- MIC Streptococcus pneumoniae (GC 1894) (Streptococcus sp.; [6]): <0.06 µg/mL
- MIC Streptococcus pneumoniae (GC 4565) (Streptococcus sp.; [6]): <0.06 µg/mL
- MIC Streptococcus pyogenes (GC 4563) (Streptococcus sp.; [6]): 16 µg/mL (≈ 9.98 µM)
- MIC Enterococcus avium (GC 4558) (Enterococcus sp.; Enterococcus avium (GC 4558)): 64 µg/mL (≈ 39.9 µM)
- MIC Enterococcus faecalis (ATCC 29212) (Enterococcus sp.; [7]): >64 µg/mL
- MIC Enterococcus faecalis (GC 2242) (Enterococcus sp.; [8]): >64 µg/mL
- MIC Enterococcus faecalis (GC 2691) (Enterococcus sp.; [9]): >64 µg/mL
- MIC Enterococcus faecalis (GC 3059) (Enterococcus sp.; [10]): >64 µg/mL
- MIC Enterococcus faecalis (GC 4552) (Enterococcus sp.; [11]): >64 µg/mL
- MIC Enterococcus faecalis (GC 4553) (Enterococcus sp.; [12]): 32 µg/mL (≈ 20 µM)
- MIC Enterococcus faecalis (GC 4554) (Enterococcus sp.; [13]): >64 µg/mL
- MIC Enterococcus faecalis (GC 6189) (Enterococcus sp.; [14]): >64 µg/mL
- MIC Enterococcus faecium (GC 2243) (Enterococcus sp.; Enterococcus faecium (GC 2243)): 32 µg/mL (≈ 20 µM)
- MIC Enterococcus faecium (GC 4556) (Enterococcus sp.; Enterococcus faecium (GC 4556)): >64 µg/mL
- MIC Enterococcus faecium (GC 4557) (Enterococcus sp.; Enterococcus faecium (GC 4557)): >64 µg/mL
- MIC Enterococcus avium (GC 4558) (Enterococcus sp.; [6]): 64 µg/mL (≈ 39.9 µM)
- MIC Enterococcus faecalis (ATCC 29212) (Enterococcus sp.; [6]): >64 µg/mL
- MIC Enterococcus faecalis (GC 2242) (Enterococcus sp.; [6]): >64 µg/mL
- MIC Enterococcus faecalis (GC 2691) (Enterococcus sp.; [6]): >64 µg/mL
- MIC Enterococcus faecalis (GC 3059) (Enterococcus sp.; [6]): >64 µg/mL
- MIC Enterococcus faecalis (GC 4552) (Enterococcus sp.; [6]): >64 µg/mL
- MIC Enterococcus faecalis (GC 4553) (Enterococcus sp.; [6]): 32 µg/mL (≈ 20 µM)
- MIC Enterococcus faecalis (GC 4554) (Enterococcus sp.; [6]): >64 µg/mL
- MIC Enterococcus faecalis (GC 6189) (Enterococcus sp.; [6]): >64 µg/mL
- MIC Enterococcus faecium (GC 2243) (Enterococcus sp.; [6]): 32 µg/mL (≈ 20 µM)
- MIC Enterococcus faecium (GC 4556) (Enterococcus sp.; [6]): >64 µg/mL
- MIC Enterococcus faecium (GC 4557) (Enterococcus sp.; [6]): >64 µg/mL
SMILES: CC(C)=CCCC(C)=CCCC(C)=CCOc1cccc(C2OCC3OC(OC4C(CO)OC(Oc5ccc(CC6NC(=O)C(C(C)c7ccccc7)NC(=O)CNC(=O)C(CO)NC(=O)C(C(O)C7CNC(=N)N7C7OC(CO)C(O)C(O)C7O)NC(=O)C(C(O)C7CNC(=N)N7)NC6=O)cc5)C(O)C4O)C(O)C(O)C3O2)c1 (centres unmarked) [Example 185]
- MIC Staphylococcus haemolyticus (GC 4546) (Staphylococcus sp.): >64 µg/mL

- MIC Escherichia coli (ATCC 25922) (Escherichia coli): 64 µg/mL (≈ 39.7 µM)
- MIC Escherichia coli (GC 4559) (Escherichia coli): 64 µg/mL (≈ 39.7 µM)
- MIC Escherichia coli (GC 4560) (Escherichia coli): 4 µg/mL (≈ 2.48 µM)
- MIC Staphylococcus aureus (ATCC 29213) (Staphylococcus sp.): 2 µg/mL (≈ 1.24 µM)
- MIC Staphylococcus aureus (GC 1131) (Staphylococcus sp.): 2 µg/mL (≈ 1.24 µM)
- MIC Staphylococcus aureus (GC 3051) (Staphylococcus sp.): 2 µg/mL (≈ 1.24 µM)
- MIC Staphylococcus aureus (GC 3053) (Staphylococcus sp.): 2 µg/mL (≈ 1.24 µM)
- MIC Staphylococcus aureus (GC 4541) (Staphylococcus sp.): 2 µg/mL (≈ 1.24 µM)
- MIC Staphylococcus aureus (GC 4542) (Staphylococcus sp.): 1 µg/mL (≈ 0.62 µM)
- MIC Staphylococcus aureus-SMITH (GC 4543) (Staphylococcus sp.): 2 µg/mL (≈ 1.24 µM)
- MIC Staphylococcus aureus (GC 4544) (Staphylococcus sp.): 2 µg/mL (≈ 1.24 µM)
- MIC Staphylococcus aureus (GC 4545) (Staphylococcus sp.): 2 µg/mL (≈ 1.24 µM)
- MIC Coagulase Negative Staphylococcus (GC 4547) (Staphylococcus sp.): 2 µg/mL (≈ 1.24 µM)
- MIC Coagulase Negative Staphylococcus (GC 4548) (Staphylococcus sp.): 1 µg/mL (≈ 0.62 µM)
- MIC Coagulase Negative Staphylococcus (GC 4549) (Staphylococcus sp.): 1 µg/mL (≈ 0.62 µM)
- MIC Coagulase Negative Staphylococcus (GC 4551) (Staphylococcus sp.): 2 µg/mL (≈ 1.24 µM)
- MIC Coagulase Negative Staphylococcus (GC 6257) (Staphylococcus sp.): 0.5 µg/mL (≈ 0.31 µM)
- MIC Streptococcus agalactiae (GC 4564) (Streptococcus sp.; [1]): <0.06 µg/mL
- MIC Streptococcus pneumoniae (ATCC 6301) (Streptococcus sp.; [2]): <0.06 µg/mL
- MIC Streptococcus pneumoniae (GC 1894) (Streptococcus sp.; [3]): <0.06 µg/mL
- MIC Streptococcus pneumoniae (GC 4565) (Streptococcus sp.; [4]): <0.06 µg/mL
- MIC Streptococcus pyogenes (GC 4563) (Streptococcus sp.; [5]): 0.25 µg/mL (≈ 0.155 µM)
- MIC Streptococcus agalactiae (GC 4564) (Streptococcus sp.; [6]): <0.06 µg/mL
- MIC Streptococcus pneumoniae (ATCC 6301) (Streptococcus sp.; [6]): <0.06 µg/mL
- MIC Streptococcus pneumoniae (GC 1894) (Streptococcus sp.; [6]): <0.06 µg/mL
- MIC Streptococcus pneumoniae (GC 4565) (Streptococcus sp.; [6]): <0.06 µg/mL
- MIC Streptococcus pyogenes (GC 4563) (Streptococcus sp.; [6]): 0.25 µg/mL (≈ 0.155 µM)
- MIC Enterococcus avium (GC 4558) (Enterococcus sp.; Enterococcus avium (GC 4558)): 2 µg/mL (≈ 1.24 µM)
- MIC Enterococcus faecalis (ATCC 29212) (Enterococcus sp.; [7]): 2 µg/mL (≈ 1.24 µM)
- MIC Enterococcus faecalis (GC 2242) (Enterococcus sp.; [8]): 2 µg/mL (≈ 1.24 µM)
- MIC Enterococcus faecalis (GC 2691) (Enterococcus sp.; [9]): 2 µg/mL (≈ 1.24 µM)
- MIC Enterococcus faecalis (GC 3059) (Enterococcus sp.; [10]): 2 µg/mL (≈ 1.24 µM)
- MIC Enterococcus faecalis (GC 4552) (Enterococcus sp.; [11]): 2 µg/mL (≈ 1.24 µM)
- MIC Enterococcus faecalis (GC 4553) (Enterococcus sp.; [12]): 2 µg/mL (≈ 1.24 µM)
- MIC Enterococcus faecalis (GC 4554) (Enterococcus sp.; [13]): 2 µg/mL (≈ 1.24 µM)
- MIC Enterococcus faecalis (GC 6189) (Enterococcus sp.; [14]): 1 µg/mL (≈ 0.62 µM)
- MIC Enterococcus faecium (GC 2243) (Enterococcus sp.; Enterococcus faecium (GC 2243)): 2 µg/mL (≈ 1.24 µM)
- MIC Enterococcus faecium (GC 4556) (Enterococcus sp.; Enterococcus faecium (GC 4556)): 2 µg/mL (≈ 1.24 µM)
- MIC Enterococcus faecium (GC 4557) (Enterococcus sp.; Enterococcus faecium (GC 4557)): 2 µg/mL (≈ 1.24 µM)
- MIC Enterococcus avium (GC 4558) (Enterococcus sp.; [6]): 2 µg/mL (≈ 1.24 µM)
- MIC Enterococcus faecalis (ATCC 29212) (Enterococcus sp.; [6]): 2 µg/mL (≈ 1.24 µM)
- MIC Enterococcus faecalis (GC 2242) (Enterococcus sp.; [6]): 2 µg/mL (≈ 1.24 µM)
- MIC Enterococcus faecalis (GC 2691) (Enterococcus sp.; [6]): 2 µg/mL (≈ 1.24 µM)
- MIC Enterococcus faecalis (GC 3059) (Enterococcus sp.; [6]): 2 µg/mL (≈ 1.24 µM)
- MIC Enterococcus faecalis (GC 4552) (Enterococcus sp.; [6]): 2 µg/mL (≈ 1.24 µM)
- MIC Enterococcus faecalis (GC 4553) (Enterococcus sp.; [6]): 2 µg/mL (≈ 1.24 µM)
- MIC Enterococcus faecalis (GC 4554) (Enterococcus sp.; [6]): 2 µg/mL (≈ 1.24 µM)
- MIC Enterococcus faecalis (GC 6189) (Enterococcus sp.; [6]): 1 µg/mL (≈ 0.62 µM)
- MIC Enterococcus faecium (GC 2243) (Enterococcus sp.; [6]): 2 µg/mL (≈ 1.24 µM)
- MIC Enterococcus faecium (GC 4556) (Enterococcus sp.; [6]): 2 µg/mL (≈ 1.24 µM)
- MIC Enterococcus faecium (GC 4557) (Enterococcus sp.; [6]): 2 µg/mL (≈ 1.24 µM)
SMILES: CC(c1ccccc1)C1NC(=O)CNC(=O)C(CO)NC(=O)C(C(O)C2CNC(=N)N2C2OC(CO)C(O)C(O)C2O)NC(=O)C(C(O)C2CNC(=N)N2)NC(=O)C(Cc2ccc(OC3OC(CO)C(OC4OC5COC(c6ccc(C(=O)c7ccc(I)cc7)cc6)OC5C(O)C4O)C(O)C3O)cc2)NC1=O (centres unmarked) [Example 186]
- MIC Staphylococcus haemolyticus (GC 4546) (Staphylococcus sp.): 1 µg/mL (≈ 0.62 µM)
